103 compounds from PubChem BioAssay AID1996 can be followed below.

Values after ≈ are worked out from the molar mass of the structure shown.

The conditions of this data set: buffer; pH 7.4; 200.0 µM.
`Oc1ccccc1C=NCCN=Cc1ccccc1O` displayed a solubility (kinetic) of 27.6 µg/mL (≈ 103 µM).
On to `COC(=O)[C@H](CC(C)C)NC(=O)NCc1ccc(Cl)cc1`, for which the solubility (kinetic) stood at 42.5 µg/mL (≈ 136 µM).
With `Cc1cccc(OCCSc2nc3ccccc3n2CCC(=O)O)c1` the figure was 53.4 µg/mL (≈ 150 µM); with `COc1ccsc1C(=O)NCCN1CCOCC1`, 39.7 µg/mL (≈ 147 µM).
With `Cc1ccc2nc(SCC(=O)c3ccc(O)cc3O)[nH]c2c1` the figure was 6.4 µg/mL (≈ 20.4 µM).
With `N#CC(C(N)=O)=C1CCCCC1` the figure was over 24.6 µg/mL.
In the case of `Cc1ccc(CN2C(=O)CSC2c2ccc(F)cc2)cc1` (stereo not drawn), the solubility (kinetic) came to 16.8 µg/mL (≈ 55.7 µM).
With `COc1ccccc1NC(=O)Nc1ccc2c(c1)CCC2` the figure was under 0.3 µg/mL; with `O=c1sc2ccccc2c(N2CCOCC2)c1[N+](=O)[O-]`, 12.8 µg/mL (≈ 43.8 µM).
As for `O=C(O)c1ccccc1NC(=O)c1ccccc1-c1ccccc1C(=O)O`, the kinetic solubility was over 54.2 µg/mL.
On to `Nc1ccc2c(c1)Oc1ccccc1C=C2`, for which the kinetic solubility stood at 12.3 µg/mL (≈ 58.8 µM).
With `CCc1cc(C(=O)N2CCN(c3ccccn3)CC2)sc1C` the figure was 43 µg/mL (≈ 136 µM); with `CC(C)(C)OC(=O)N1CCC(CNC(=O)c2ccc(F)cc2)CC1`, over 50.5 µg/mL; with `COc1ccc(C23NCCN2C(=O)c2ccccc23)cc1` (stereo not drawn), over 42 µg/mL.
With `N#Cc1ccccc1NC(=O)COC(=O)c1cccs1` the figure was 4 µg/mL (≈ 14 µM).
`COc1ccc(NS(=O)(=O)c2cccc(NC(=O)COc3ccccc3[N+](=O)[O-])c2)cc1`: the kinetic solubility turned out to be 2.9 µg/mL (≈ 6.34 µM).
With `Cc1ccc(NC(=O)COC(=O)C2=COCCO2)c([N+](=O)[O-])c1` the figure was 6.6 µg/mL (≈ 20.5 µM); with `O=C(NCc1ccc(-n2cccc2)cc1)c1cccc(F)c1`, 1.7 µg/mL (≈ 5.78 µM).
With `O=C(c1ccc(Cl)cc1)N1CCCCC(Cl)C1=O` (stereo not drawn) the figure was 6.9 µg/mL (≈ 24.1 µM).
Regarding `CCn1ccc(C(=O)Nc2ncc(C)s2)n1`, the solubility (kinetic) was over 35.4 µg/mL.
As for `COc1cc(OC)cc(C(=O)Nc2cccc3ccccc23)c1`, the solubility (kinetic) was 1.9 µg/mL (≈ 6.18 µM).
For `Cc1cc(=O)[nH]c2c(C)cc(S(=O)(=O)N3CCCCC3)cc12`, the kinetic solubility is 2.6 µg/mL (≈ 8.11 µM).
With `Cc1[nH]c(=O)c(Cc2ccccc2)c(O)c1C#N` the figure was over 36 µg/mL; with `NC(=O)c1ccsc1NC(=O)COC(=O)c1cnccn1`, over 45.9 µg/mL.
With `COCCN(CC(=O)Nc1cccc(C)c1C)C(=O)C1(c2ccc(Cl)cc2)CCC1` the figure was 33.8 µg/mL (≈ 78.8 µM); with `CCNC(=O)COC(=O)c1cc(C)n(-c2ccccc2)c1C`, over 45.1 µg/mL; with `O=C1CCC(C(=O)Nc2ccccc2N2CCOCC2)=NN1`, over 45.3 µg/mL.
`CCOC(=O)c1sc(NC(=O)C2=COCCO2)c(C#N)c1C` came in with a solubility (kinetic) of 13.5 µg/mL (≈ 41.9 µM).
`CC(=O)c1ccc(N2CCN(C(=O)c3cccs3)CC2)c(F)c1`: the solubility (kinetic) is over 49.9 µg/mL.
The compound `O=C(C1CCCN(Cc2ccccc2F)C1)N1CCCC1.O=C(O)C(=O)O` (stereo not drawn) showed a solubility (kinetic) of 43.2 µg/mL.
With `O=C(O)c1cc(S(=O)(=O)NCCN2CCNC2=O)ccc1O` the figure was over 49.4 µg/mL.
With `O=C(c1ccccc1SCc1ccccc1)N1CCOCC1` the figure was 45.9 µg/mL (≈ 146 µM); with `CCCCC(=O)Nc1ccc(C(=O)N(CC)c2ccccc2C)cc1`, 7.9 µg/mL (≈ 23.3 µM).
`COC(=O)c1sc(N2CCCCC2)c(C#N)c1N` registered a kinetic solubility of 2.2 µg/mL (≈ 8.29 µM).
With `Cc1ccc(N2CC(C(=O)N3CCCCC3)CC2=O)cc1C` (stereo not drawn) the figure was over 45.1 µg/mL.
With `COc1ccc(N2CCOCC2)c(NC(=O)c2ccc3c(c2)OCO3)c1` the figure was 26.2 µg/mL (≈ 73.5 µM); with `CCN(CC)C(=O)C1CCCN(C/C=C/c2ccccc2[N+](=O)[O-])C1` (stereo not drawn), 41.7 µg/mL (≈ 121 µM); with `CC(NC(=O)CCC(=O)NCc1ccc(F)cc1)c1ccccc1` (stereo not drawn), over 49.3 µg/mL.
`Cc1ccccc1NC(=S)N(Cc1cccs1)C1CCCC1` showed a kinetic solubility of 13.3 µg/mL (≈ 40.2 µM).
The compound `O=C(/C=C/c1ccccc1)NCCc1c[nH]c2ccccc12` had a solubility (kinetic) of 19.7 µg/mL (≈ 67.8 µM).
With `Cc1ccc(NS(=O)(=O)c2ccc(Cl)s2)nc1` the figure was 33.6 µg/mL (≈ 116 µM); with `CC(C)Oc1ccc(CCN=C(N)N=C(N)N)cc1Cl.Cl`, over 50.1 µg/mL; with `C=C(C)C(=O)Oc1ccc(N2C(=O)[C@@H]3C4C=CC(C4)[C@@H]3C2=O)cc1`, 10.1 µg/mL (≈ 31.2 µM).
Take `O/N=C\c1cnc(N2CCN(c3ccccc3)CC2)s1`: the kinetic solubility amounted to 2.9 µg/mL (≈ 10.1 µM).
With `COC(=O)c1c(C)oc(C)c1S(=O)(=O)Nc1ccccc1` the figure was over 46.4 µg/mL; with `CCOC(=O)N1CCN(S(=O)(=O)c2ccc(C)cc2)C1`, 38 µg/mL (≈ 127 µM).
With `O=C(COC(=O)c1cnccn1)c1ccc(Cl)c([N+](=O)[O-])c1` the figure was over 48.3 µg/mL; with `Cc1cc(N2CCCC2)nc2ccccc12`, 31.6 µg/mL (≈ 149 µM).
With `CN1C(=O)C2C3c4ccccc4C(c4ccccc43)[C@@H]2C1=O` (stereo partly drawn) the figure was 2 µg/mL (≈ 6.91 µM); with `CCC(CC)C(=O)OCC(=O)Nc1cccc([N+](=O)[O-])c1`, 43 µg/mL (≈ 146 µM); with `CCS(=O)(=O)c1ccc(O)c(NC(=O)/C=C/c2ccc(Cl)cc2)c1`, 3.9 µg/mL (≈ 10.7 µM).
For `Cc1ccc(CNC(=O)c2cc(=O)c3cc(C)ccc3o2)cc1`, the kinetic solubility is under 0.7 µg/mL.
With `CC(=O)N1c2ccccc2C2(C)C(C1(C)C)C2(Cl)Cl` (stereo not drawn) the figure was 6.1 µg/mL (≈ 20.5 µM); with `O=C(C1CC(=O)N(c2ccc(F)cc2)C1)N1CCCCCC1` (stereo not drawn), over 45.7 µg/mL.
In the case of `O=C(Nc1ccccc1F)c1cc(-c2ccco2)nc2ccccc12`, the solubility (kinetic) was found to be 0.7 µg/mL (≈ 2.11 µM).
With `Cc1ccc(S(=O)(=O)N2CCCC(C(=O)NC3CC3)C2)cc1` (stereo not drawn) the figure was 46.2 µg/mL (≈ 143 µM).
With `CCOc1cc(/C=C2\C(=O)ON=C2c2ccccc2)ccc1OC` the figure was 46.1 µg/mL (≈ 143 µM).
With `COc1ccc(NC(=O)C2CC(=O)n3c(nc4ccccc43)N2)cc1` (stereo not drawn) the figure was 0.3 µg/mL (≈ 0.892 µM); with `CCCCN(C(=O)c1c(C)noc1C)c1c(N)n(CCC)c(=O)[nH]c1=O`, 18.6 µg/mL (≈ 51.2 µM).
`c1ccc2c(NCCc3c[nH]c4ccccc34)c3ccccc3nc2c1` returned a solubility (kinetic) of over 50.6 µg/mL.
As for `COc1cccc(CN2C(=O)C(C)Oc3ccccc32)c1` (stereo not drawn), the solubility (kinetic) stood at 26.5 µg/mL (≈ 93.5 µM).
With `Cc1cc(-c2ccccc2)nc(SCc2ccc(C(=O)O)cc2)n1` the figure was 43.5 µg/mL (≈ 129 µM); with `COc1c(Cl)ccc(Cl)c1C(=O)NCc1ccco1`, over 45 µg/mL; with `COC(=O)C1=C(Nc2ccccc2NC(=O)c2ccccc2C(=O)O)CSC1`, over 59.8 µg/mL.
With `O=C(c1ccccc1Br)N1CCn2c1nc1ccccc12` the figure was 26.7 µg/mL (≈ 78 µM); with `CCOC(=O)/C(C#N)=C/Nc1ccsc1C(C)=O`, 3.5 µg/mL (≈ 13.2 µM).
With `O=C(CCCN1C(=O)c2ccccc2C1=O)NCCCn1ccnc1` the figure was 49.5 µg/mL (≈ 145 µM); with `Br.CCn1c2c(c(=N)c3c1CCC3)CCCC2`, over 44.6 µg/mL; with `COCCNC(=O)CN1C(=O)NC2(CCCCCC2)C1=O`, over 44.6 µg/mL.
For `CCN1c2ccccc2N(C)C1(C)c1ccccc1` (stereo not drawn), the kinetic solubility was 21.5 µg/mL (≈ 85.2 µM).
With `N#Cc1ccc(CN2CCN(C(=O)CNS(=O)(=O)c3ccc4c(c3)OCCCO4)CC2)cc1` the figure was 35.3 µg/mL (≈ 75 µM).
With `COc1cc(Cl)c(C)cc1NC(=O)CC1CCCC1` the figure was 2 µg/mL (≈ 7.1 µM); with `O=Cc1c(NCc2ccc(F)cc2)c2ccccc2[nH]c1=O`, 2.6 µg/mL (≈ 8.77 µM); with `CCN1CCN(CCC(=O)Nc2ccccc2)CC1`, over 39.2 µg/mL.
With `FC(F)(F)c1cccc(Cc2noc(CN3C[C@@H]4CCC[C@H]3C4)n2)c1` the figure was 28.4 µg/mL (≈ 80.8 µM).
`Nc1nc(CCl)nc(Nc2cccc3ccccc23)n1` showed a kinetic solubility of 41 µg/mL (≈ 143 µM).
With `O=C(NCCCCNC(=O)c1ccc(F)cc1)c1ccc(F)cc1` the figure was 3.9 µg/mL (≈ 11.7 µM).
In the case of `Cc1ccc(NC(=O)CC(=O)Nc2ccc(C)cc2C)c(C)c1`, the kinetic solubility stood at 6.3 µg/mL (≈ 20.3 µM).
Consider `CSCc1ccc(C(=O)NC(C)c2ccc(-n3ccnc3)cc2)cc1` (stereo not drawn), for which the solubility (kinetic) is 42.1 µg/mL (≈ 120 µM).
With `CC1(C)CC(=O)C(C(N)=NC(=O)c2ccc([N+](=O)[O-])cc2)=C(O)C1` the figure was 0.7 µg/mL (≈ 2.11 µM).
With `Cc1cccc(Nc2nc(NCc3ccco3)nc(N)c2[N+](=O)[O-])c1` the figure was under 0.1 µg/mL.
With `Cc1ccc(C(=O)OCC(=O)NC(C)c2ccccc2)s1` (stereo not drawn) the figure was 16.1 µg/mL (≈ 53.1 µM); with `CC1Cc2ccccc2N1CC(=O)Nc1cccc(S(N)(=O)=O)c1` (stereo not drawn), over 51.8 µg/mL.
For `Cc1cc2cc(CNC(=S)NCc3ccccc3)ccc2n1C`, the kinetic solubility stood at 1.8 µg/mL (≈ 5.56 µM).
With `O=C(NCCC(=O)N1CCCCC1)c1ccccc1Cl` the figure was over 44.2 µg/mL; with `CCC(C)NC(=O)CN1C(=O)NC2(CCc3ccccc3C2)C1=O` (stereo not drawn), over 49.4 µg/mL; with `COc1ccc(S(=O)(=O)N2CN3CCN(C3)C2)cc1OC`, over 47 µg/mL.
As to `COc1ccc(C(=O)NC2CCSc3ccccc32)cc1F` (stereo not drawn), the kinetic solubility was 2.9 µg/mL (≈ 9.14 µM).
With `COc1ccc(N2CCN(C(CNS(=O)(=O)c3ccc(C)cc3)c3ccccc3)CC2)cc1` (stereo not drawn) the figure was 1.4 µg/mL (≈ 3.01 µM); with `Cn1ccs/c1=N\C(=O)Nc1cccc(C(F)(F)F)c1`, over 45.2 µg/mL.
With `COc1cccc(C(=O)Nc2sc3c(c2C(=O)O)CCCC3)c1` the figure was over 49.7 µg/mL; with `COc1ccc(OC)c(C2=NOC(C(=O)Nc3cc(C)on3)C2)c1` (stereo not drawn), 44.1 µg/mL (≈ 133 µM).
The compound `Cc1nn(C)cc1S(=O)(=O)Nc1ncccn1` displayed a kinetic solubility of over 38 µg/mL.
With `O=C(CSc1nncc2ccccc12)Nc1ccccc1` the figure was over 44.3 µg/mL; with `CC1CN(S(=O)(=O)c2ccc(C(=O)NC3CCCCC3)cc2)CC(C)O1` (stereo not drawn), 45.8 µg/mL (≈ 120 µM); with `Cc1cc(C)nc(SCC(=O)c2ccc(F)cc2)n1`, 38.5 µg/mL (≈ 139 µM).
With `OC(CC#CCN1CCCC1)(c1ccccc1)c1ccccc1` the figure was 36.7 µg/mL (≈ 120 µM); with `COc1ccc(C(=O)Nc2ccc3nc(C)sc3c2)cc1OC`, 3 µg/mL (≈ 9.14 µM).
With `Cc1ccc(NC(=O)Nc2ccc3c(c2)CCC3)cc1` the figure was under 0.3 µg/mL; with `O=C(COc1ccc(Br)cc1)NC1CC1`, over 40.5 µg/mL.
For the compound `CC(C)N(C)S(=O)(=O)c1ccc(Cl)c(C(=O)O)c1`, the solubility (kinetic) is over 43.8 µg/mL.
With `CC(=O)c1cccc(NC(=O)C2C3CCC(C3)C2C(=O)O)c1` (stereo not drawn) the figure was 42.9 µg/mL (≈ 142 µM); with `CSC1=C(C#N)C(=O)NC(c2ccc(Cl)cc2)S1` (stereo not drawn), 11.9 µg/mL (≈ 40.1 µM).
